For 15 compounds, pest or weed control results are on record in patent publication US8895474B2, “Herbicidally active cyclopentanediones and derivatives thereof, and their use in controlling weeds” (Syngenta Limited, priority 2009, dated 2014).

For orientation: pest or weed control means how far the test organism was held down. A lower pest or weed control goes with weak suppression.

What all share (format): in vivo
What all share (conditions): 312 h, rate 250 g/ha, evaluated after 13 days, 100=total damage to plant, 0=no damage to plant

Experiment [1] has as its system Avena fatua (AVEFA). The experiment is described as follows: Pre-emergence herbicidal activity, glasshouse pot test. The procedure:
(§1) Seeds of a variety of test species were sown in standard soil in pots. After cultivation for one day (pre-emergence) or after 8 days cultivation (post-emergence) under controlled conditions in a glasshouse (at 24/16° C., day/night; 14 hours light; 65% humidity), the plants were sprayed with an aqueous spray solution derived from the formulation of the technical active ingredient in acetone/water (50:50) solution containing 0.5% Tween 20 (polyoxyethelyene sorbitan monolaurate, CAS RN 9005-64-5). The test plants were then grown in a glasshouse under controlled conditions in a glasshouse (at 24/16° C., day/night; 14 hours light; 65% humidity) and watered twice daily. After 13 days for pre and post-emergence, the test was evaluated (100=total damage to plant; 0=no damage to plant). Test Plants: Lolium perenne (LOLPE), Alopecurus myosuroides (ALOMY), Echinochloa crus-galli (ECHCG), and Avena fatua (AVEFA). Pre-Emergence Activity

Experiment [2] has as its system Lolium perenne (LOLPE). The experiment is described as above. As for the experimental part:
as §1

Experiment [3] concerns Alopecurus myosuroides (ALOMY). The description is as above. The procedure: as §1
Experiment [4] relates to Echinochloa crus-galli (ECHCG). The experiment is described as above. As for the experimental part: as §1
For experiment [5], the system named is Avena fatua (AVEFA). Kind of experiment: Post-emergence herbicidal activity, glasshouse pot test. As for the experimental part: as §1, with “Post-Emergence” for “Pre-Emergence”
For experiment [6], the system named is Lolium perenne (LOLPE). The experiment is described as above. The procedure:
as §1, with “Post-Emergence” for “Pre-Emergence”

For experiment [7], the system named is Alopecurus myosuroides (ALOMY). The experiment is described as above. The procedure:
as §1, with “Post-Emergence” for “Pre-Emergence”

Experiment [8] concerns Echinochloa crus-galli (ECHCG). The experiment is described as above. As for the experimental part:
as §1, with “Post-Emergence” for “Pre-Emergence”

Consider `CCc1ccc(Oc2ccc(Br)cc2)cc1C1=C(O)[C@H]2[C@@H](C1=O)[C@@H]1CC[C@H]2O1` [Compound A-4], for which the pest or weed control at 250 g/ha in the experiment on Avena fatua (AVEFA) [1] turned out to be 90%; with Lolium perenne (LOLPE) [2] it was 90%; in experiment [3] it was 80%; in experiment [4], 100%; with Avena fatua (AVEFA) [5], 100%; with Lolium perenne (LOLPE) [6] it was 90%. In addition, the pest or weed control at 250 g/ha in experiment [7] and in experiment [8] was 100% throughout.

For `CCc1ccc(Oc2ccc(Cl)cc2)cc1C1=C(O)[C@H]2[C@H]3CC[C@H](C3)[C@H]2C1=O` [Compound A-24], the pest or weed control at 250 g/ha was 30% in the experiment with Avena fatua (AVEFA) [1]; 40% in the experiment with Lolium perenne (LOLPE) [2]; 10% in experiment [3]; 50% in experiment [4]; 70% with Avena fatua (AVEFA) [5]; 60% with Lolium perenne (LOLPE) [6]. The pest or weed control at 250 g/ha in experiment [7] was determined as 60%; in experiment [8], 100%.

With `CCc1ccc(Oc2cnc3cc(Cl)ccc3n2)cc1C1=C(O)C2C(C1=O)[C@H]1CC[C@@H]2CC1` (stereo partly drawn) [Compound A-13, 2-[5-(6-chloroquinoxalin-2-yloxy)-2-ethylphenyl]hexahydro-4,7-ethanoindene-1,3-dione], the pest or weed control at 250 g/ha is 20% with Avena fatua (AVEFA) [1]; 60% with Lolium perenne (LOLPE) [2]; 50% in experiment [3]; 80% in experiment [4]; 100% in the experiment on Avena fatua (AVEFA) [5]; 90% with Lolium perenne (LOLPE) [6]. In addition, the values for the pest or weed control at 250 g/ha in experiment [7] and in experiment [8] were 90% and 100%, respectively.

`CCc1ccc(Oc2ccccc2F)cc1C1=C(O)[C@H]2[C@@H](C1=O)[C@@H]1CC[C@H]2O1` [Compound A-5]: the pest or weed control at 250 g/ha in the experiment on Avena fatua (AVEFA) [1] is 0%; with Lolium perenne (LOLPE) [2], 40%; in experiment [3], 30%; in experiment [4] it was 80%; in the experiment on Avena fatua (AVEFA) [5], 10%; in the experiment with Lolium perenne (LOLPE) [6] it was 30%. The pest or weed control at 250 g/ha in experiment [7] came out at 30%; in experiment [8], 80%.

Take `CCc1ccc(Oc2ccc(OC(F)(F)F)cc2)cc1C1=C(O)[C@H]2[C@@H](C1=O)[C@@H]1CC[C@H]2O1` [Compound A-50]: the pest or weed control at 250 g/ha (in the experiment with Avena fatua (AVEFA) [1]; with Lolium perenne (LOLPE) [2]; in experiment [3]; in experiment [4]; in the experiment on Avena fatua (AVEFA) [5]; in the experiment with Lolium perenne (LOLPE) [6]) was 100% throughout. Further, the pest or weed control at 250 g/ha in experiment [7] and in experiment [8] was 100% throughout.

Turning to `CCc1ccc(Oc2cnc3cc(Cl)ccc3n2)cc1C1=C(O)CCC1=O` [Compound A-18], the pest or weed control at 250 g/ha stood at 50% in the experiment with Avena fatua (AVEFA) [1]; 70% in the experiment on Lolium perenne (LOLPE) [2]; 50% in experiment [3]; 80% in experiment [4]; 90% in the experiment with Avena fatua (AVEFA) [5]; 70% with Lolium perenne (LOLPE) [6]. Further, the pest or weed control at 250 g/ha worked out at 90% in experiment [7] and 100% in experiment [8].

As to `CCc1ccc(Oc2nc3ccc(C(F)(F)F)cc3s2)cc1C1=C(O)C2C(C1=O)[C@H]1CC[C@@H]2CC1` (stereo partly drawn) [Compound A-108], the pest or weed control at 250 g/ha in the experiment with Avena fatua (AVEFA) [1] turned out to be 10%; in the experiment with Lolium perenne (LOLPE) [2], 50%; in experiment [3], 30%; in experiment [4], 80%; in the experiment on Avena fatua (AVEFA) [5], 90%; with Lolium perenne (LOLPE) [6], 70%. Also, the pest or weed control at 250 g/ha was 90% in experiment [7] and 100% in experiment [8].

In the case of `CCc1ccc(Oc2ccc(F)cc2)cc1C1=C(O)[C@H]2[C@@H](C1=O)[C@@H]1CC[C@H]2O1` [Compound A-46], the pest or weed control at 250 g/ha was 60% in the experiment with Avena fatua (AVEFA) [1]; 80% in the experiment on Lolium perenne (LOLPE) [2]; 80% in experiment [3]; 100% in experiment [4]; 60% in the experiment with Avena fatua (AVEFA) [5]; 80% in the experiment on Lolium perenne (LOLPE) [6]. Also, the pest or weed control at 250 g/ha in experiment [7] turned out to be 80%; in experiment [8], 100%.

For the compound `CCc1ccc(Oc2ccc(Br)cc2F)cc1C1=C(O)[C@H]2[C@H]3CC[C@H](C3)[C@H]2C1=O` [Compound A-27], the pest or weed control at 250 g/ha with Avena fatua (AVEFA) [1] is 0%; with Lolium perenne (LOLPE) [2] it was 40%; in experiment [3], 20%; in experiment [4], 60%; in the experiment with Avena fatua (AVEFA) [5] it was 70%; with Lolium perenne (LOLPE) [6], 80%. Further, the values for the pest or weed control at 250 g/ha in experiment [7] and in experiment [8] were 60% and 80%, respectively.

In the case of `CCc1ccc(Oc2ccc(C(F)(F)F)cc2[N+](=O)[O-])cc1C1=C(O)C2C(C1=O)[C@H]1CC[C@@H]2CC1` (stereo partly drawn) [Compound A-105], the pest or weed control at 250 g/ha was determined as 0% in the experiment with Avena fatua (AVEFA) [1]; 40% with Lolium perenne (LOLPE) [2]; 10% in experiment [3]; 60% in experiment [4]; 40% with Avena fatua (AVEFA) [5]; 30% in the experiment with Lolium perenne (LOLPE) [6]. In addition, the pest or weed control at 250 g/ha was found to be 40% in experiment [7] and 90% in experiment [8].

`CCc1ccc(Oc2ccc(Cl)cc2)cc1C1=C(O)[C@H]2[C@@H](C1=O)[C@@H]1CC[C@H]2O1` [Compound A-1, meso-(1R,2S,6R,7S)-4-[5-(4-chlorophenoxy)-2-ethylphenyl]-10-oxatricyclo[5.2.1.0^2,6]decane-3,5-dione]: the pest or weed control at 250 g/ha was 70% in the experiment on Avena fatua (AVEFA) [1]; 70% in the experiment with Lolium perenne (LOLPE) [2]; 70% in experiment [3]; 70% in experiment [4]; 80% in the experiment with Avena fatua (AVEFA) [5]; 80% in the experiment with Lolium perenne (LOLPE) [6]. The pest or weed control at 250 g/ha in experiment [7] and in experiment [8] was 100% throughout.

For `CCc1ccc(Oc2ccc(Cl)c(F)c2)cc1C1=C(O)[C@H]2[C@@H](C1=O)[C@@H]1CC[C@H]2O1` [Compound A-45], the pest or weed control at 250 g/ha stood at 90% in the experiment with Avena fatua (AVEFA) [1]; 90% in the experiment with Lolium perenne (LOLPE) [2]; 90% in experiment [3]; 100% in experiment [4]; 90% in the experiment with Avena fatua (AVEFA) [5]; 90% with Lolium perenne (LOLPE) [6]. The results for the pest or weed control at 250 g/ha in experiment [7] and in experiment [8] were 90% and 100%, respectively.

In the case of `CCc1ccc(Oc2ccc(Cl)cc2Cl)cc1C1=C(O)C2C(C1=O)[C@H]1CC[C@@H]2CC1` (stereo partly drawn) [Compound A-29], the pest or weed control at 250 g/ha in the experiment on Avena fatua (AVEFA) [1] was 0%; in the experiment on Lolium perenne (LOLPE) [2], 0%; in experiment [3] it was 0%; in experiment [4] it was 50%; in the experiment with Avena fatua (AVEFA) [5], 0%; with Lolium perenne (LOLPE) [6] it was 0%. In addition, the pest or weed control at 250 g/ha in experiment [7] came out at 60%; in experiment [8] it was 100%.

For `CCc1ccc(Oc2ncc(Br)cn2)cc1C1=C(O)CCC1=O` [Compound A-72], the pest or weed control at 250 g/ha in the experiment with Avena fatua (AVEFA) [1] came to 30%; in the experiment with Lolium perenne (LOLPE) [2] it was 70%; in experiment [3] it was 40%; in experiment [4], 100%; in the experiment on Avena fatua (AVEFA) [5], 30%; with Lolium perenne (LOLPE) [6], 30%. Moreover, the values for the pest or weed control at 250 g/ha in experiment [7] and in experiment [8] were 50% and 100%, respectively.

Consider `CCc1ccc(Oc2ccc(C(F)(F)F)cc2Br)cc1C1=C(O)CCC1=O` [Compound A-80], for which the pest or weed control at 250 g/ha in the experiment on Avena fatua (AVEFA) [1] was determined as 10%; in the experiment on Lolium perenne (LOLPE) [2], 50%; in experiment [3] it was 0%; in experiment [4], 80%; in the experiment with Avena fatua (AVEFA) [5] it was 50%; with Lolium perenne (LOLPE) [6] it was 30%. In addition, the pest or weed control at 250 g/ha was 40% in experiment [7] and 80% in experiment [8].
